# Test results as given in patent US20120277440A1, “IMINO DERIVATIVES, PROCESS FOR PREPARATION THEREOF, AND IN[…]” (MEIJI SEIKA PHARMA CO., LTD., priority 2010, published 2012).
row,melting point [°C],SMILES
1,125 to 126,CCS(=O)(=O)N=C1SCCN1Cc1ccc(Cl)nc1
2,76 to 78,CC(=O)N=C1SCCN1Cc1ccc(Cl)nc1
